Patent US10377753B2, “Substituted 4-azaindoles and their use as GluN2B receptor modulators” (Janssen Pharmaceutica NV, priority 2015, dated 2019)
Where a name gives a salt, the structure may show the parent alone.

target: cloned human NR1/NR2B ion channels (Homo sapiens (Human), UniProt Q05586+Q13224); assay: HNR2BC: effects of test articles on cloned human NR1/NR2B ion channels expressed in mammalian cells (FLIPR calcium flux); format: cell-based; details: cloned human NR1/NR2B, Table 5
Outline: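 In a stable Tet-On-induced cell line expressing human GluN1/GluN2B, Calcium 5-loaded cells were preincubated 5 min with compound, then stimulated 5 min with glutamate at ~EC80 plus 10 μM glycine, in pH 7.4 HEPES buffer. FLIPR calcium fluorescence was normalized to control wells.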

Chain of cloned human NR1/NR2B ion channels (Q13224 27-1484, other chains not shown): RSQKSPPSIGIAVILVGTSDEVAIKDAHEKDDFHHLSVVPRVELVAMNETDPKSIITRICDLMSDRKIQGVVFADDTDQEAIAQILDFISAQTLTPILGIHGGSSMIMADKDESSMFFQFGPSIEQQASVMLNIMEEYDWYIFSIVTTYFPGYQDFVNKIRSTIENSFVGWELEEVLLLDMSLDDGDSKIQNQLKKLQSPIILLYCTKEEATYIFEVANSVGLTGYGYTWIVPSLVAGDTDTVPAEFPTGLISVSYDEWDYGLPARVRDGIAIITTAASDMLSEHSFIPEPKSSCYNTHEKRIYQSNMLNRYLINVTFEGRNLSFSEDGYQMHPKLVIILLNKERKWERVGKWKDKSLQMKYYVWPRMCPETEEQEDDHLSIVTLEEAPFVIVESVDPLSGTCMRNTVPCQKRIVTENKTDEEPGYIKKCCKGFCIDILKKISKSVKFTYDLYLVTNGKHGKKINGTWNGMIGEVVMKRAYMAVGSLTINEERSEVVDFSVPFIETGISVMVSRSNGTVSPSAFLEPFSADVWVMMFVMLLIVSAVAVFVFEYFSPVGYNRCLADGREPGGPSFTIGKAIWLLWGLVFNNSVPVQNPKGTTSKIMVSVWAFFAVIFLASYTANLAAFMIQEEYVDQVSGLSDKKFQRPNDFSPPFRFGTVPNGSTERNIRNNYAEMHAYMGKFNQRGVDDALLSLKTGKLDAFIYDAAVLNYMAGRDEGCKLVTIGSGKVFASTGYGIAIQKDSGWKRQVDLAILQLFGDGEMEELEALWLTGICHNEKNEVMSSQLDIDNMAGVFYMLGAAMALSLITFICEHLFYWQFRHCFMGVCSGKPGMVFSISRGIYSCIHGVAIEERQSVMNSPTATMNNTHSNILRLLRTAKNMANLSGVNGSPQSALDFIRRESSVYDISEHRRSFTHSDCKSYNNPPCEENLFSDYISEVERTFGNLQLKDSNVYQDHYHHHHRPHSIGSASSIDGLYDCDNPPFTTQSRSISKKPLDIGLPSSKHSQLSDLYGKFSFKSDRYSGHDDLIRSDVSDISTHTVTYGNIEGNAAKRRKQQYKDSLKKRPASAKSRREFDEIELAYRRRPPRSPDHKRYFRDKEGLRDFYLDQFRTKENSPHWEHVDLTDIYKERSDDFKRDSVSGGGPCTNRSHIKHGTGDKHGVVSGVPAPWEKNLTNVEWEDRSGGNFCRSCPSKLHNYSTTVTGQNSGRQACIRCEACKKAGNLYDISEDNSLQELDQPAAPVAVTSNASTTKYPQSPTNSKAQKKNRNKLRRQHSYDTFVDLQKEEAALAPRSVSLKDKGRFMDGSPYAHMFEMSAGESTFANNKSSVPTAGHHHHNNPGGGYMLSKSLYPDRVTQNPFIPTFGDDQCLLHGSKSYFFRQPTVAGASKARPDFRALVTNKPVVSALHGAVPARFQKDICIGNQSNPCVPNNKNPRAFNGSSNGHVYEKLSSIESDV

SMILES | IC50 [nM] | pIC50
O=C(Cn1cc(F)c2ncc(-c3cc(F)c(F)c(F)c3)cc21)N1CC(F)C1 [Example 306, 1-(3-Fluoroazetidin-1-yl)-2-[3-fluoro-6-(3,4,5-trifluorophenyl)pyrrolo[3,2-b]pyridin-1-yl]ethanone] | 398 | 
Cc1cc(-c2cnc3c(F)cn(CC(=O)N4CC(F)C4)c3c2)ccc1F [Example 307, 1-(3-Fluoroazetidin-1-yl)-2-[3-fluoro-6-(4-fluoro-3-methyl-phenyl)pyrrolo[3,2-b]pyridin-1-yl]ethanone] | 39.8 | 
O=C(Cn1cc(F)c2ncc(-c3ccc(F)cc3)cc21)N1CC(F)C1 [Example 308, 1-(3-Fluoroazetidin-1-yl)-2-[3-fluoro-6-(4-fluorophenyl)pyrrolo[3,2-b]pyridin-1-yl]ethanone] | 63.1 | 
Cc1csc(-c2cnc3c(F)cn(CC(=O)N4CC(F)C4)c3c2)c1 [Example 309, 1-(3-Fluoroazetidin-1-yl)-2-[3-fluoro-6-(4-methyl-2-thienyl)pyrrolo[3,2-b]pyridin-1-yl]ethanone] | 200 | 
O=C(Cn1cc(F)c2ncc(-c3cccc(C(F)F)c3)cc21)N1CC(F)C1 [Example 310, 2-[6-[3-(Difluoromethyl)phenyl]-3-fluoro-pyrrolo[3,2-b]pyridin-1-yl]-1-(3-fluoroazetidin-1-yl)ethanone] | 50.1 | 
O=C(Cn1cc(F)c2ncc(-c3ccc(F)c(F)c3)cc21)N1CC(F)C1 [Example 311, 2-[6-(3,4-Difluorophenyl)-3-fluoro-pyrrolo[3,2-b]pyridin-1-yl]-1-(3-fluoroazetidin-1-yl)ethanone] | 63.1 | 
O=C(Cn1cc(Cl)c2ncc(-c3ccc(F)c(F)c3F)cc21)N1CCC1 [Example 312, 1-(Azetidin-1-yl)-2-[3-chloro-6-(2,3,4-trifluorophenyl)pyrrolo[3,2-b]pyridin-1-yl]ethanone] | 158 | 
Cc1cc(-c2cnc3c(F)cn(CC(=O)N4CCCC4)c3c2)ccc1F [Example 313, 2-[3-Fluoro-6-(4-fluoro-3-methyl-phenyl)pyrrolo[3,2-b]pyridin-1-yl]-1-pyrrolidin-1-yl-ethanone] | 20 | 
O=C(Cn1cc(F)c2ncc(-c3ccc(F)cc3)cc21)N1CCCC1 [Example 314, 2-[3-Fluoro-6-(4-fluorophenyl)pyrrolo[3,2-b]pyridin-1-yl]-1-pyrrolidin-1-yl-ethanone] | 63.1 | 
O=C(Cn1cc(F)c2ncc(-c3cc(F)c(F)c(F)c3)cc21)N1CCCC1 [Example 315, 2-[3-Fluoro-6-(3,4,5-trifluorophenyl)pyrrolo[3,2-b]pyridin-1-yl]-1-pyrrolidin-1-yl-ethanone] | 79.4 | 
Cc1cc(-c2cnc3c(F)cn(CC(=O)C4CC4)c3c2)ccc1F [Example 316, 1-Cyclopropyl-2-[3-fluoro-6-(4-fluoro-3-methyl-phenyl)pyrrolo[3,2-b]pyridin-1-yl]ethanone] | 39.8 | 
Cc1csc(-c2cnc3c(F)cn(CC(=O)C4CC4)c3c2)c1 [Example 317, 1-Cyclopropyl-2-[3-fluoro-6-(4-methyl-2-thienyl)pyrrolo[3,2-b]pyridin-1-yl]ethanone] | 39.8 | 
O=C(Cn1cc(F)c2ncc(-c3ccc(Cl)s3)cc21)C1CC1 [Example 318, 2-[6-(5-Chloro-2-thienyl)-3-fluoro-pyrrolo[3,2-b]pyridin-1-yl]-1-cyclopropyl-ethanone] | 20 | 
O=C(Cn1cc(F)c2ncc(-c3ccc(F)cc3)cc21)C1CC1 [Example 319, 1-Cyclopropyl-2-[3-fluoro-6-(4-fluorophenyl)pyrrolo[3,2-b]pyridin-1-yl]ethanone] | 20 | 
O=C(Cn1cc(F)c2ncc(-c3cc(F)c(F)c(F)c3)cc21)C1CC1 [Example 320, 1-Cyclopropyl-2-[3-fluoro-6-(3,4,5-trifluorophenyl)pyrrolo[3,2-b]pyridin-1-yl]ethanone] | 31.6 | 
O=C(Cn1cc(F)c2ncc(-c3cccc(C(F)F)c3)cc21)C1CC1 [Example 321, 1-Cyclopropyl-2-[6-[3-(difluoromethyl)phenyl]-3-fluoro-pyrrolo[3,2-b]pyridin-1-yl]ethanone] | 20 | 
Cc1csc(-c2cnc3c(F)cn(CC(=O)N4CCC4)c3c2)c1 [Example 322, 1-(Azetidin-1-yl)-2-[3-fluoro-6-(4-methyl-2-thienyl)pyrrolo[3,2-b]pyridin-1-yl]ethanone] | 20 | 
O=C(Cn1cc(F)c2ncc(-c3cccc(C(F)F)c3)cc21)N1CCC1 [Example 323, 1-(Azetidin-1-yl)-2-[6-[3-(difluoromethyl)phenyl]-3-fluoro-pyrrolo[3,2-b]pyridin-1-yl]ethanone] | 100 | 
Cc1cc(-c2cnc3c(F)cn(CC(=O)C(C)C)c3c2)ccc1F [Example 324, 1-[3-Fluoro-6-(4-fluoro-3-methyl-phenyl)pyrrolo[3,2-b]pyridin-1-yl]-3-methyl-butan-2-one] | 100 | 
CCc1cccc(-c2cnc3c(F)cn(CC(=O)C(C)C)c3c2)c1 [Example 325, 1-[6-(3-Ethylphenyl)-3-fluoro-pyrrolo[3,2-b]pyridin-1-yl]-3-methyl-butan-2-one] | 200 | 
CC(C)C(=O)Cn1cc(F)c2ncc(-c3ccc(F)c(F)c3)cc21 [Example 326, 1-[6-(3,4-Difluorophenyl)-3-fluoro-pyrrolo[3,2-b]pyridin-1-yl]-3-methyl-butan-2-one] | 200 | 

SMILES | IC50 [nM] | pIC50
CC(C)C(=O)Cn1cc(F)c2ncc(-c3cccc(F)c3)cc21 [Example 327, 1-[3-Fluoro-6-(3-fluorophenyl)pyrrolo[3,2-b]pyridin-1-yl]-3-methyl-butan-2-one] | 63.1 | 
CC(C)C(=O)Cn1cc(F)c2ncc(-c3cccc(C(F)(F)F)c3)cc21 [Example 328, 1-[3-Fluoro-6-[3-(trifluoromethyl)phenyl]pyrrolo[3,2-b]pyridin-1-yl]-3-methyl-butan-2-one] | 63.1 | 
Cc1cccc(-c2cnc3c(F)cn(CC(=O)C(C)C)c3c2)c1 [Example 329, 1-[3-Fluoro-6-(m-tolyl)pyrrolo[3,2-b]pyridin-1-yl]-3-methyl-butan-2-one] | 501 | 
CSCn1ccc2ncc(-c3ccc(F)c(C)c3)cc21 [Example 330, 6-(4-Fluoro-3-methyl-phenyl)-1-(methylsulfanylmethyl)pyrrolo[3,2-b]pyridine] | 63.1 | 
Cc1cc(-c2cnc3ccn(CS(C)(=O)=O)c3c2)ccc1F [Example 332, 6-(4-Fluoro-3-methyl-phenyl)-1-(methylsulfonylmethyl)pyrrolo[3,2-b]pyridine] | 1580 | 
CCC(=O)Cn1cc(F)c2ncc(-c3ccc(F)cc3)cc21 [Example 333, 1-[3-Fluoro-6-(4-fluorophenyl)pyrrolo[3,2-b]pyridin-1-yl]butan-2-one] | 6310 | 
CCC(=O)Cn1cc(F)c2ncc(-c3cc(F)c(F)c(F)c3)cc21 [Example 334, 1-[3-Fluoro-6-(3,4,5-trifluorophenyl)pyrrolo[3,2-b]pyridin-1-yl]butan-2-one] | 25.1 | 
CCC(=O)Cn1cc(F)c2ncc(-c3ccc(F)c(C)c3)cc21 [Example 335, 1-[3-Fluoro-6-(4-fluoro-3-methyl-phenyl)pyrrolo[3,2-b]pyridin-1-yl]butan-2-one] | 12.6 | 
CCC(=O)Cn1cc(F)c2ncc(-c3ccc(F)c(F)c3)cc21 [Example 336, 1-[6-(3,4-Difluorophenyl)-3-fluoro-pyrrolo[3,2-b]pyridin-1-yl]butan-2-one] | 20 | 
CCC(=O)Cn1cc(F)c2ncc(-c3cccc(C(F)F)c3)cc21 [Example 337, 1-[6-[3-(Difluoromethyl)phenyl]-3-fluoro-pyrrolo[3,2-b]pyridin-1-yl]butan-2-one] | 15.8 | 
CCC(=O)Cn1cc(F)c2ncc(-c3ccc(Cl)s3)cc21 [Example 338, 1-[6-(5-Chloro-2-thienyl)-3-fluoro-pyrrolo[3,2-b]pyridin-1-yl]butan-2-one] | 15.8 | 
CCC(=O)Cn1cc(F)c2ncc(-c3cc(C)cs3)cc21 [Example 339, 1-[3-Fluoro-6-(4-methyl-2-thienyl)pyrrolo[3,2-b]pyridin-1-yl]butan-2-one] | 12.6 | 
CC(=O)CCn1ccc2ncc(-c3ccc(F)cc3)cc21 [Example 340, 4-[6-(4-Fluorophenyl)pyrrolo[3,2-b]pyridin-1-yl]butan-2-one] |  | 7.9
CC(C)C(=O)Cn1cc(F)c2ncc(-c3ccc(F)cc3)cc21 [Example 341, 1-[3-Fluoro-6-(4-fluorophenyl)pyrrolo[3,2-b]pyridin-1-yl]-3-methyl-butan-2-one] | 1000 | 
CC(C)C(=O)Cn1cc(F)c2ncc(-c3cccc(C(F)F)c3)cc21 [Example 342, 1-[6-[3-(Difluoromethyl)phenyl]-3-fluoro-pyrrolo[3,2-b]pyridin-1-yl]-3-methyl-butan-2-one] | 50.1 | 
Cc1csc(-c2cnc3c(F)cn(CC(=O)C(C)C)c3c2)c1 [Example 343, 1-[3-Fluoro-6-(4-methyl-2-thienyl)pyrrolo[3,2-b]pyridin-1-yl]-3-methyl-butan-2-one] | 63.1 | 
CC(C)C(=O)Cn1cc(F)c2ncc(-c3cc(F)c(F)c(F)c3)cc21 [Example 344, 1-[3-Fluoro-6-(3,4,5-trifluorophenyl)pyrrolo[3,2-b]pyridin-1-yl]-3-methyl-butan-2-one] | 50.1 | 
CC(C)C(=O)Cn1cc(F)c2ncc(-c3ccc(Cl)s3)cc21 [Example 345, 1-[6-(5-Chloro-2-thienyl)-3-fluoro-pyrrolo[3,2-b]pyridin-1-yl]-3-methyl-butan-2-one] | 31.6 | 
Cc1cc(-c2cnc3ccn(CC(=O)N4CCOCC4)c3c2)ccc1F [Example 346, 2-[6-(4-Fluoro-3-methyl-phenyl)pyrrolo[3,2-b]pyridin-1-yl]-1-morpholino-ethanone] | 39.8 | 
Cc1cc(-c2cnc3ccn(CC(=O)NC4CC4)c3c2)ccc1F [Example 348, N-Cyclopropyl-2-[6-(4-fluoro-3-methyl-phenyl)pyrrolo[3,2-b]pyridin-1-yl]acetamide] | 31.6 | 
O=C(Cn1ccc2ncc(-c3cc(F)cc(F)c3)cc21)NC1CC1 [Example 350, N-Cyclopropyl-2-[6-(3,5-difluorophenyl)pyrrolo[3,2-b]pyridin-1-yl]acetamide trifluoroacetate salt] | 15.8 | 
